Source: US20240092784A1, “CONDENSED HETEROCYCLIC COMPOUND” (NISSAN CHEMICAL CORPORATION, priority 2020, published 2024)

Target: human SPR (Homo sapiens (Human), UniProt P35270)
Test: Evaluation Example 2: Measurement of human SPR inhibitory activity (seven concentrations, sepiapterin absorbance at 420 nm)
Format: biochemical
Settings: Evaluation Example 2, seven concentrations 0.14 nM to 100 nM, 240 minutes at room temperature, read-out: IC50
Method in brief: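 His-tagged full-length human SPR (1-261) was expressed in E. coli and the tag removed. Enzyme at 150 ng/mL in 100 mM Tris-HCl pH 7.5/0.01% BSA was mixed with compound (0.14–100 nM, seven points), 120 μM sepiapterin and 160 μM NADPH, both as added-solution concentrations. After 240 min at room temperature, remaining sepiapterin was read at 420 nm to give percent inhibition.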

Chain of human SPR (P35270 whole entry): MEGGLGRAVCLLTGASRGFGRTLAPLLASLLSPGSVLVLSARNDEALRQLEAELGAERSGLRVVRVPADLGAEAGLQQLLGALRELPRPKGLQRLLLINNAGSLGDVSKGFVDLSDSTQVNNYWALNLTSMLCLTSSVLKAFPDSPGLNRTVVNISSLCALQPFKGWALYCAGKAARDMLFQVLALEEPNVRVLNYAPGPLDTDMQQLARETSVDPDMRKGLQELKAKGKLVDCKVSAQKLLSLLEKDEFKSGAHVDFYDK

Structure (SMILES) | IC50
COCCN(C)C(=O)/C=C/c1cnn2c(O)c(C(=O)NC3CC3)c(=O)n(CC(C)C)c12 [compound 519, (E)-N-Cyclopropyl-7-hydroxy-4-isobutyl-3-(3-((2-methoxyethyl)(methyl)amino)-3-oxoprop-1-en-1-yl)-5-oxo-4,5-dihydropyrazolo[1,5-a]pyrimidine-6-carboxamide] | 0.68 nM
CC(C)Cn1c(=O)c(C(=O)NC2CC2)c(O)n2ncc(/C=C/C(=O)N3CCC[C@@H](CO)C3)c12 [compound 520, (R,E)-N-Cyclopropyl-7-hydroxy-3-(3-(3-(hydroxymethyl)piperidin-1-yl)-3-oxoprop-1-en-1-yl)-4-isobutyl-5-oxo-4,5-dihydropyrazolo[1,5-a]pyrimidine-6-carboxamide] | 0.77 nM
CC(C)Cn1c(=O)c(C(=O)NC2CC2)c(O)n2ncc(/C=C/C(=O)N3CCO[C@H](CO)C3)c12 [compound 521, (S,E)-N-Cyclopropyl-7-hydroxy-3-(3-(2-(hydroxymethyl)morpholino)-3-oxoprop-1-en-1-yl)-4-isobutyl-5-oxo-4,5-dihydropyrazolo[1,5-a]pyrimidine-6-carboxamide] | 0.59 nM
CCN(C)C(=O)/C=C/c1cnn2c(O)c(C(=O)NC3CC3)c(=O)n(CC(C)C)c12 [compound 522, (E)-N-Cyclopropyl-3-(3-(ethyl(methyl)amino)-3-oxoprop-1-en-1-yl)-7-hydroxy-4-isobutyl-5-oxo-4,5-dihydropyrazolo[1,5-a]pyrimidine-6-carboxamide] | 0.78 nM
CC(C)Cn1c(=O)c(C(=O)NC2CC2)c(O)n2ncc(/C=C/C(=O)N(C)C3CCOCC3)c12 [compound 523, (E)-N-Cyclopropyl-7-hydroxy-4-isobutyl-3-(3-(methyl(tetrahydro-2H-pyran-4-yl)amino)-3-oxoprop-1-en-1-yl)-5-oxo-4,5-dihydropyrazolo[1,5-a]pyrimidine-6-carboxamide] | 0.71 nM
CC(C)Cn1c(=O)c(C(=O)NC2CC2)c(O)n2ncc(/C=C/C(=O)N(C)CCC#N)c12 [compound 524, (E)-3-(3-((2-Cyanoethyl)(methyl)amino)-3-oxoprop-1-en-1-yl)-N-cyclopropyl-7-hydroxy-4-isobutyl-5-oxo-4,5-dihydropyrazolo[1,5-a]pyrimidine-6-carboxamide] | 0.72 nM
CC(C)Cn1c(=O)c(C(=O)NC2CC2)c(O)n2ncc(/C=C/C(=O)N3CCOC[C@@H]3CO)c12 [compound 525, (S,E)-N-Cyclopropyl-7-hydroxy-3-(3-(3-(hydroxymethyl)morpholino)-3-oxoprop-1-en-1-yl)-4-isobutyl-5-oxo-4,5-dihydropyrazolo[1,5-a]pyrimidine-6-carboxamide] | 0.65 nM
CC(C)Cn1c(=O)c(C(=O)NC2CC2)c(O)n2ncc(/C=C/C(=O)N3CCOC[C@H]3CO)c12 [compound 526, (R,E)-N-Cyclopropyl-7-hydroxy-3-(3-(3-(hydroxymethyl)morpholino)-3-oxoprop-1-en-1-yl)-4-isobutyl-5-oxo-4,5-dihydropyrazolo[1,5-a]pyrimidine-6-carboxamide] | 0.67 nM
CC(C)Cn1c(=O)c(C(=O)NC2CCC2)c(O)n2ncc(/C=C/C(=O)N3CCOCC3)c12 [compound 527, (E)-N-Cyclobutyl-7-hydroxy-4-isobutyl-3-(3-morpholino-3-oxoprop-1-en-1-yl)-5-oxo-4,5-dihydropyrazolo[1,5-a]pyrimidine-6-carboxamide] | 0.74 nM
CC(C)Cn1c(=O)c(C(=O)NC2CC2)c(O)n2ncc(/C=C/C(=O)N3CCC[C@H](CO)C3)c12 [compound 528, (S,E)-N-Cyclopropyl-7-hydroxy-3-(3-(3-(hydroxymethyl)piperidin-1-yl)-3-oxoprop-1-en-1-yl)-4-isobutyl-5-oxo-4,5-dihydropyrazolo[1,5-a]pyrimidine-6-carboxamide] | 0.85 nM
CC(C)Cn1c(=O)c(C(=O)NC2CC2)c(O)n2ncc(/C=C/C(=O)N3CCO[C@@H](C(F)(F)F)C3)c12 [compound 529, (R,E)-N-Cyclopropyl-7-hydroxy-4-isobutyl-5-oxo-3-(3-oxo-3-(2-(trifluoromethyl)morpholino)prop-1-en-1-yl)-4,5-dihydropyrazolo[1,5-a]pyrimidine-6-carboxamide] | 1.03 nM
CC(C)Cn1c(=O)c(C(=O)NC2CC2)c(O)n2ncc(/C=C/C(=O)N3CCO[C@H](C(F)(F)F)C3)c12 [compound 530, (S,E)-N-Cyclopropyl-7-hydroxy-4-isobutyl-5-oxo-3-(3-oxo-3-(2-(trifluoromethyl)morpholino)prop-1-en-1-yl)-4,5-dihydropyrazolo[1,5-a]pyrimidine-6-carboxamide] | 1.14 nM
COC[C@H]1COCCN1C(=O)/C=C/c1cnn2c(O)c(C(=O)NC3CC3)c(=O)n(CC(C)C)c12 [compound 531, (S,E)-N-Cyclopropyl-7-hydroxy-4-isobutyl-3-(3-(3-(methoxymethyl)morpholino)-3-oxoprop-1-en-1-yl)-5-oxo-4,5-dihydropyrazolo[1,5-a]pyrimidine-6-carboxamide] | 0.73 nM
COC[C@@H]1COCCN1C(=O)/C=C/c1cnn2c(O)c(C(=O)NC3CC3)c(=O)n(CC(C)C)c12 [compound 532, (R,E)-N-Cyclopropyl-7-hydroxy-4-isobutyl-3-(3-(3-(methoxymethyl)morpholino)-3-oxoprop-1-en-1-yl)-5-oxo-4,5-dihydropyrazolo[1,5-a]pyrimidine-6-carboxamide] | 0.55 nM
CC(C)Cn1c(=O)c(C(=O)NC2CC2)c(O)n2ncc(/C=C/C(=O)N3C4CCC3COC4)c12 [compound 533, (E)-3-(3-(3-Oxa-8-azabicyclo[3.2.1]octan-8-yl)-3-oxoprop-1-en-1-yl)-N-cyclopropyl-7-hydroxy-4-isobutyl-5-oxo-4,5-dihydropyrazolo[1,5-a]pyrimidine-6-carboxamide] | 0.64 nM
CC(C)Cn1c(=O)c(C(=O)NC2CC2)c(O)n2ncc(/C=C/C(=O)N3CCOC[C@H]3C(F)(F)F)c12 [compound 534, (S,E)-N-Cyclopropyl-7-hydroxy-4-isobutyl-5-oxo-3-(3-oxo-3-(3-(trifluoromethyl)morpholino)prop-1-en-1-yl)-4,5-dihydropyrazolo[1,5-a]pyrimidine-6-carboxamide] | 0.87 nM
CC(C)Cn1c(=O)c(C(=O)NC2CC2)c(O)n2ncc(/C=C/C(=O)N3CCCCO3)c12 [compound 535, (E)-3-(3-(1,2-Oxazinan-2-yl)-3-oxoprop-1-en-1-yl)-N-cyclopropyl-7-hydroxy-4-isobutyl-5-oxo-4,5-dihydropyrazolo[1,5-a]pyrimidine-6-carboxamide] | 0.92 nM
CC(C)Cn1c(=O)c(C(=O)NC2CC2)c(O)n2ncc(/C=C/C(=O)N3CCC[C@H]3C)c12 [compound 536, (R,E)-N-Cyclopropyl-7-hydroxy-4-isobutyl-3-(3-(2-methylpyrrolidine-1-yl)-3-oxoprop-1-en-1-yl)-5-oxo-4,5-dihydropyrazolo[1,5-a]pyrimidine-6-carboxamide] | 0.92 nM
CC(C)Cn1c(=O)c(C(=O)NC2CC2)c(O)n2ncc(/C=C/C(=O)N3CCCC3(C)C)c12 [compound 537, (E)-N-Cyclopropyl-3-(3-(2,2-dimethylpyrrolidin-1-yl)-3-oxoprop-1-en-1-yl)-7-hydroxy-4-isobutyl-5-oxo-4,5-dihydropyrazolo[1,5-a]pyrimidine-6-carboxamide] | 0.86 nM
CC(C)Cn1c(=O)c(C(=O)NC2CC2)c(O)n2ncc(/C=C/C(=O)N3C[C@H]4C[C@@H]3CO4)c12 [compound 538, 3-((E)-3-((1R,4R)-2-Oxa-5-azabicyclo[2.2.1]heptan-5-yl)-3-oxoprop-1-en-1-yl)-N-cyclopropyl-7-hydroxy-4-isobutyl-5-oxo-4,5-dihydropyrazolo[1,5-a]pyrimidine-6-carboxamide] | 0.69 nM
CC(C)Cn1c(=O)c(C(=O)NC2CC2)c(O)n2ncc(/C=C/C(=O)N3C[C@@H]4C[C@H]3CO4)c12 [compound 539, 3-((E)-3-((1S,4S)-2-Oxa-5-azabicyclo[2.2.1]heptan-5-yl)-3-oxoprop-1-en-1-yl)-N-cyclopropyl-7-hydroxy-4-isobutyl-5-oxo-4,5-dihydropyrazolo[1,5-a]pyrimidine-6-carboxamide] | 0.64 nM
CC[C@@H]1COCCN1C(=O)/C=C/c1cnn2c(O)c(C(=O)NC3CC3)c(=O)n(CC(C)C)c12 [compound 540, (R,E)-N-Cyclopropyl-3-(3-(3-ethylmorpholino)-3-oxoprop-1-en-1-yl)-7-hydroxy-4-isobutyl-5-oxo-4,5-dihydropyrazolo[1,5-a]pyrimidine-6-carboxamide] | 0.66 nM
CC(C)Cn1c(=O)c(C(=O)NC2CC2)c(O)n2ncc(/C=C/C(=O)N3CCOCC34CC4)c12 [compound 541, (E)-N-Cyclopropyl-7-hydroxy-4-isobutyl-5-oxo-3-(3-oxo-3-(7-oxa-4-azaspiro[2.5]octan-4-yl)prop-1-en-1-yl)-4,5-dihydropyrazolo[1,5-a]pyrimidine-6-carboxamide] | 0.82 nM
CC(C)Cn1c(=O)c(C(=O)NC2CC2)c(O)n2ncc(/C=C/C(=O)N3C4CCCC3COC4)c12 [compound 542, (E)-3-(3-(3-Oxa-9-azabicyclo[3.3.1]nonan-9-yl)-3-oxoprop-1-en-1-yl)-N-cyclopropyl-7-hydroxy-4-isobutyl-5-oxo-4,5-dihydropyrazolo[1,5-a]pyrimidine-6-carboxamide] | 0.78 nM
CC(C)Cn1c(=O)c(C(=O)NC2CC2)c(O)n2ncc(/C=C/C(=O)N3CCCCCO3)c12 [compound 543, (E)-3-(3-(1,2-Oxazepan-2-yl)-3-oxoprop-1-en-1-yl)-N-cyclopropyl-7-hydroxy-4-isobutyl-5-oxo-4,5-dihydropyrazolo[1,5-a]pyrimidine-6-carboxamide] | 0.97 nM
CC[C@H]1COCCN1C(=O)/C=C/c1cnn2c(O)c(C(=O)NC3CC3)c(=O)n(CC(C)C)c12 [compound 544, (S,E)-N-Cyclopropyl-3-(3-(3-ethylmorpholino)-3-oxoprop-1-en-1-yl)-7-hydroxy-4-isobutyl-5-oxo-4,5-dihydropyrazolo[1,5-a]pyrimidine-6-carboxamide] | 0.95 nM
